Reference: US7138241B2, “Hybridoma, an antibody resistant to an interfering substance, and a kit for immunological analysis” (Japan Envirochemicals, Ltd., priority 2001, dated 2006)

System: EE2-227 antibody
Assay: Cross-reactivity test with the EE2-ELISA kit
Format: binding, mouse
Details: from IC50 (50% degree of inhibition) of each estrogen's standard curve relative to EE2
Method: 100 μL/well of a quantification sample or the “EE2 standard solution” (both are 10% methanol solutions) and 100 μL/well of the “antigen-enzyme conjugate solution” were mixed on a “mixing microplate”.
The “mixed solution” prepared in (3) was pipetted into the “anti-EE2 monoclonal antibody-immobilized plate” in a volume of 100 μl/well and reacted at room temperature for 60 minutes.
The “coloration reagent” prepared in (7) was added in the volume of 100 μL/well, the mixture was reacted at room temperature for 30 minutes, and the “coloration-stop solution” was added in a volume of 100 μL/well to stop the reaction.
The absorbance was measured at a wavelength of 450 nm with a plate reader, and the concentration of EE2 in the sample was determined from a standard curve.
The EE2 concentration was plotted on the ordinate [sic], and the ratio of the absorbance at each EE2 concentration to the absorbance at the concentration of 0 μg/L EE2 (degree of inhibition, B/BO %) was plotted on the abscissa [sic].
For the estrogens shown in [Table 2], the respective standard curves were prepared in the same manner as in Example 4, and the EE2 concentration (IC50) at which the degree of inhibition was 50% was determined and the cross-reactivity was determined from the following equation, and the results are shown in [Table 2]. Cross-reactivity (%)=[…]

SMILES | Cross-reactivity (%) of EE2-227 antibody [%]
COc1cc2c(cc1O)CC[C@@H]1[C@@H]2CC[C@]2(C)C(=O)CC[C@@H]12 [2-Methoxy E1] | <0.2
C[C@]12CC[C@@H]3c4ccc(O)cc4CC[C@H]3[C@@H]1C[C@H](O)[C@@H]2O [16-Epi-E3] | <0.2
C[C@]12CC[C@@H]3c4ccc(O)cc4CC[C@H]3[C@@H]1CC[C@@H]2O [17β-Estradiol (E2), 17β-Estradiol] | <0.2
C[C@]12CC[C@@H]3c4ccc(O[C@@H]5O[C@H](C(=O)O)[C@@H](O)[C@H](O)[C@H]5O)cc4CC[C@H]3[C@@H]1CC[C@@H]2O [E2-3-glucuronide] | <0.2
C[C@]12CC[C@@H]3c4ccc(OS(=O)(=O)O)cc4CC[C@H]3[C@@H]1CC[C@@H]2O[C@@H]1O[C@H](C(=O)O)[C@@H](O)[C@H](O)[C@H]1O [E2-3-sulfate-17-glucuronide] | <0.2
C[C@]12CC[C@@H]3c4ccc(O)cc4CC[C@H]3[C@@H]1CC[C@@H]2O[C@@H]1O[C@H](C(=O)O)[C@@H](O)[C@H](O)[C@H]1O [E2-17-glucuronide] | <0.2
C[C@]12CC[C@@H]3c4ccc(O)cc4CC[C@H]3[C@@H]1C[C@@H](O[C@@H]1O[C@H](C(=O)O)[C@@H](O)[C@H](O)[C@H]1O)[C@@H]2O [E3-16-glucuronide] | <0.2
C[C@]12CC[C@@H]3c4ccc(O)cc4CC[C@H]3[C@@H]1C[C@@H](O)[C@@H]2O [Estriol (E3), Estriol] | <0.2
C#C[C@]1(O)CC[C@H]2[C@@H]3CCc4cc(O)ccc4[C@H]3CC[C@@]21C [Ethynylestradiol (EE2), Ethynylestradiol] | 100.0
